A short description of data set [1]: dissolution of the 11β-aminoester salts in aqueous acid (Table 5 and Examples 101, 225-229). In kind it is physicochemical. The settings on record: for concentration of aqueous solution of the citrate: citric acid monohydrate in water, filtered solution. The procedure:
(§1) A solution of the above free base (492 mg; 1 mmole) in ethanol (10 ml) was treated with a solution (10 ml) of M/10 citric acid in ethanol water (9:1) and the mixture evaporated in vacuo at low temperature to afford a froth.
(§2) Table 5 summarises the properties and preparation of salts of the invention by one of the following methods:
(§3) A. The 11β-aminoester (1 part) was added to a solution of the acid (1 molar part) in water and the mixture stirred or shaken until a clear solution was obtained. The solution was made up with water to the weight indicated, filtered through a membrane and the pH determined.
(§4) B. The 11β-aminoester (1 part) was added to a solution of the acid (1 molar part) in water and the mixture stirred or shaken. As free base remained undissolved, further acid was added and the mixture agitated again. The solution was made up with water to the weight indicated and any material which then remained undissolved was collected in a weighed funnel and the weight of free base dissolved calculated and the pH of the solution measured.
(§5) C. A mixture of the 11β-aminoester (1 part), a 0.1 M solution of the acid (1 molar part) and ethanol was evaporated in vacuo and dried to constant weight. The residue was dissolved in a little water and any material which then remained undissolved collected in a weighed funnel and the weight of free base dissolved calculated. The solution was made up with water to the weight indicated and its pH measured.
(§6) D. The 11β-aminoester (1 part) was added to a solution of the acid (1 molar part) in water and the mixture stirred or shaken. The solution was made up with water to the weight indicated. The material remaining undissolved was collected in a weighed funnel and the weight of free base dissolved calculated and the pH of the solution measured.
(§7) E. As in method C except that further acid was added to the residue after addition of the small amount of water.
The solid citric acid used was as its monohydrate.
(§8) Sodium iodide (0.250 g) and diethylamine (0.5 ml) were added to a solution of 11β-chloroacetoxy-2β-ethoxy-3α-hydroxy-D-homo-5α-pregnan-20-one (0.250 g) in acetone (10 ml) and the mixture was left at room temperature for 3 days during which time a white solid precipated. Water was added and the yellow solution was concentrated in vacuo whereupon crystallisation occurred. The needles were filtered off and washed well with acetone/water yielding the title compound (0.201 g), m.p. 160°-73°, [α]D +60.8°. The above base (0.101 g) was stirred with citric acid monohydrate (0.042 g) in water (9.5 ml) for 21 hours. The solution was made up to 10.1 g by weight. The solid remaining out of solution was filtered off, dried and weighed. The solution was passed through a millipore filter giving an aqueous solution of the title compound, concentration 9.75 mg/ml, pH 3.66.
The above base (0.096 g) was stirred in a solution of citric acid monohydrate (0.038 g) in water (8.5 ml) for 20 hours. A large proportion of the steroid remained out of solution. More citric acid (0.038 g) was added and the mixture stirred for a further 6 hours. The solution was made up to 9.6 g by weight and the solid remaining out of solution was filtered off, dried and weighed. The solution was passed through a millipore filter giving an aqueous solution of the title compound, concentration 9.5 mg/ml, pH 2.85.
To a solution of citric acid monohydrate (52.5 mg) in water (2 ml) was added the above free base (115 mg). More water (8 ml) was added and the mixture was stirred for 72 hrs. A small amount of steroid remained out of solution and more citric acid (52.5 mg) was added. Within 5 mins. a clear solution was obtained which was made up to 11.5 g with water and filtered through a millipore filter yielding an aqueous solution of the title citrate, concentration 10 mg/ml, pH 3.0.
The above free base (112 mg) was added to a solution of citric acid monohydrate (52.5 mg) in water (2 ml). More water (8 ml) was added and the mixture was swirled from time to time. […]

The nature of a further data set: pH of the salt solutions. It counts as physicochemical. As to the method:
as §1, §2, §3, §4, §5, §6, §7
11β-N,N-Diethylaminoacetoxy-2β-ethoxy-3α-hydroxy-5α-pregnan-20-one (1.45 g) was agitated with citric acid monohydrate (621 mg) in 0.9% w/v sodium chloride solution (steriflex^(R)) (130 ml.) at 20° for 16.5 hours. The resulting solution was stirred at 21° and N/5 sodium hydroxide solution in steriflex^(R) (10.5 ml) was added dropwise during 30 minutes, raising the pH from 3.63 to 4.52. The solution was diluted to 162.5 g so that the concentration of steroid was 9 mg/ml. The solution of the citrate was filtered through a membrane and finally filtered into 8 sterile ampoules.
11β-(N-Butyl-N-ethylaminoacetoxy)-3α-hydroxy-5α-pregnan-20-one (1.80 g) was agitated with citric acid monohydrate (793 mg) in 0.9% w/v sodium chloride solution (steriflex^(R)) (160 ml) at 20° for 19.5 hours. The resulting solution was slightly cloudy. This solution was stirred at 21° and N/5 sodium hydroxide solution in steriflex^(R) (5.8 ml) was added dropwise during 15 minutes, raising the pH from 3.62 to 4.00. The solution was diluted to 201.2 g so that the concentration of steroid was 9 mg/ml. The cloudiness was removed by filtration through a membrane and the clear solution of the citrate was filtered into 8 sterile ampoules.
as §8, with “3.66. […]” for “3.66.”

Setting [2] is: method B: further acid added, undissolved material weighed, WT. of solution 10 g, except Ex. 130 and 141: 9.2, 142: 9.23, 143, 144, 189 and 199: 9.8, 149: 10.6, 153: 7.9, 162 and 188: 9.5, 163: 68, 166: 10.4, 168: 10.7, 169: 10.9, 183: 8.05, 184 and 201: 9.83, 185: 7.1, 186: 9.3, 192: 10.07, 193: 6.4, 195: 6.8, 196: 7, 197: 7.2, 200: 10.1, 206: 15 g.
Where [3] appears, read: aqueous solution of the salt, Table 5.
[4] abbreviates: method C: ethanol evaporated, residue in water, undissolved material weighed, WT. of solution Ex. 118: 10, 120: 10.4, 148: 9.54, 152: 5.6, 154: 9.1, 155: 8.77, 156: 9.06, 157: 9.5, 158: 9.38, 159: 9.17, 179: 9.65, 180: 11.7, 182: 4.9, 202: 12.05, 213: 12, 214: 11.5, 215: 11.1, 216: 11.6, 217: 12.1 g.
Where [5] appears, read: aqueous solution of the citrate, filtered, 9.5-10 mg/ml.
[6] abbreviates: method A: clear solution, 1 molar part acid, made up with water to WT. of solution 10 g, except Ex. 121 and 150: 12, 123: 12.3, 124: 7.5, 129: 10.3, 135 and 139: 8.95, 164: 10.35, 170: 10.4, 181: 10.04, 187: 9.5, 210: 10.2, 221: 15 g.

Structures can show the parent of a compound that is named as a salt.

This is an account of results in patent US4192871A, “Chemical compounds” (Glaxo Laboratories Limited, priority 1976, dated 1980).

`CC(=O)[C@H]1CC[C@H]2[C@@H]3CC[C@H]4C[C@H](O)CC[C@]4(C)[C@H]3[C@@H](OC(=O)CNC(C(C)C)C(C)C)C[C@]12C` [Example 144]: the Dissolved aminoester in data set [1] (setting [2]) amounted to 61 mg. In addition, the pH in “pH of the salt solutions” (setting [3]) turned out to be 2.79.

In the case of `CC(=O)[C@H]1CC[C@H]2[C@@H]3CC[C@H]4C[C@H](O)CC[C@]4(C)[C@H]3[C@@H](OC(=O)CN3CCCCC3C)C[C@]12C` (some centres unmarked) [Example 148], the Dissolved aminoester in data set [1] (setting [4]) amounted to 95.4 mg. For the same molecule, the pH in “pH of the salt solutions” (setting [3]) amounted to 3.55.

As for `CC(=O)[C@H]1CC[C@H]2[C@@H]3CC[C@H]4C[C@H](O)[C@@H](Cl)C[C@]4(C)[C@H]3[C@@H](OC(=O)CN3CCC(C)CC3)C[C@]12C` [Example 203], the Dissolved aminoester in data set [1] (method E: as C with further acid, WT. of solution Ex. 160: 6.12, 161: 7.8, 203: 12.7, 212: 12.125, 220: 10 g) is reported as 127 mg. The pH in the data set “pH of the salt solutions” (setting [3]) is listed as 2.85.

Consider `CC(=O)C1CCC2C3CCC4CC(O)C(C)CC4(C)C3C(OC(=O)CN3CCC(C)CC3)CC12C` (centres unmarked) [Example 175], for which the Dissolved aminoester in data set [1] (setting [2]) is 95 mg. Also, the pH in the data set “pH of the salt solutions” (setting [3]) is 2.96.

With `CCCN(CCC)CC(=O)O[C@H]1C[C@]2(C)[C@@H](C(C)=O)CC[C@H]2[C@@H]2CC[C@H]3C[C@H](O)CC[C@]3(C)[C@H]21` [Example 213], the Dissolved aminoester in data set [1] (setting [4]) worked out at 119 mg. Also, in the data set “pH of the salt solutions” (setting [3]), the pH stood at 3.8.

For `CC(=O)[C@H]1CC[C@H]2[C@@H]3CC[C@H]4C[C@H](O)CC[C@@H]4[C@H]3[C@@H](OC(=O)CN3CCC(C)CC3)C[C@]12C` [Example 229 citrate salt], the “concentration of aqueous solution of the citrate” value in data set [1] was found to be 10000 µg/mL. Further, the pH in “pH of the salt solutions” (setting [5]) is recorded as 3.73.

As to `CCCN(CCC)CC(=O)O[C@H]1C[C@]2(C)[C@@H](C(C)=O)CC[C@H]2[C@@H]2CC[C@H]3C[C@H](O)CC[C@@H]3[C@H]21` [Example 227 citrate salt], the “concentration of aqueous solution of the citrate” value in data set [1] was determined as 10000 µg/mL. For the same molecule, the pH in the data set “pH of the salt solutions” (setting [5]) is 3.0.

For the molecule `CCN(CC(=O)O[C@H]1C[C@]2(C)[C@@H](C(C)=O)CC[C@H]2[C@@H]2CC[C@H]3C[C@H](O)CC[C@]3(C)[C@H]21)C(C)CC(C)C` (some centres unmarked) [Example 197], the Dissolved aminoester in data set [1] (setting [2]) is reported as 63 mg. In addition, in “pH of the salt solutions” (setting [3]), the pH is 2.99.

As to `CC(=O)C1CCC2C3CCC4CC(O)CCC4(C)C3C(OC(=O)CNC(C)CC(C)C)CC12C` (centres unmarked) [Example 163], the Dissolved aminoester in data set [1] (setting [2]) is 68 mg. For the same molecule, the pH in “pH of the salt solutions” (setting [3]) is listed as 3.08.

As to `CCN(CC)CC(=O)OC1CC2(C)C(C(C)=O)CCC2C2CCC3CC(O)C(OC(C)C)CC3(C)C12` (centres unmarked) [Example 167], in data set [1] (method D: 1 molar part acid, undissolved material weighed, WT. of solution 10 g, except Ex. 136: 8.95, 140: 9.52, 165 and 167: 10.1, 190 and 198: 9.8, 191: 8.9, 194: 6.6, 204: 10.09, 219: 10.6 g), the Dissolved aminoester came out at 93 mg. Moreover, the pH in “pH of the salt solutions” (setting [3]) came out at 3.65.

In the case of `CCN(C)CC(=O)O[C@H]1C[C@]2(C)[C@@H](C(C)=O)CC[C@H]2[C@@H]2CC[C@H]3C[C@H](O)CC[C@]3(C)[C@H]21` [Example 116], the Dissolved aminoester in data set [1] (setting [6]) came out at 100 mg. The pH in the data set “pH of the salt solutions” (setting [3]) came out at 3.63.

In the case of `CCC(C)NCC(=O)O[C@H]1C[C@]2(C)[C@@H](C(C)=O)CC[C@H]2[C@@H]2CC[C@H]3C[C@H](O)CC[C@]3(C)[C@H]21` (some centres unmarked) [Example 139], the Dissolved aminoester in data set [1] (setting [6]) came out at 89.5 mg. The pH in the data set “pH of the salt solutions” (setting [3]) turned out to be 3.76.

Take `CCN(CC)CC(=O)O[C@H]1C[C@]2(C)[C@@H](C(C)=O)CC[C@H]2[C@@H]2CC[C@H]3C[C@H](O)[C@@H](Br)C[C@]3(C)[C@H]21` [Example 208]: the Dissolved aminoester in data set [1] (setting [2]) was determined as 65 mg. Further, in the data set “pH of the salt solutions” (setting [3]), the pH is on record as 2.6.

In the case of `CCCCN(C)CC(=O)O[C@H]1C[C@]2(C)[C@@H](C(C)=O)CC[C@H]2[C@@H]2CC[C@H]3C[C@H](O)[C@@H](Br)C[C@]3(C)[C@H]21` [Example 207], the Dissolved aminoester in data set [1] (setting [2]) is listed as 59 mg. Further, in “pH of the salt solutions” (setting [3]), the pH stood at 2.6.

In the case of `CCN(CC)CC(=O)OC1CC2(C)C(C(=O)COC)CCC2C2CCC3CC(O)CCC3(C)C12` (centres unmarked) [Example 172], in data set [1] (setting [6]), the Dissolved aminoester is 100 mg. Moreover, the pH in the data set “pH of the salt solutions” (setting [3]) stood at 3.2.

With `CCCO[C@H]1C[C@@]2(C)[C@@H](CC[C@@H]3[C@@H]2[C@@H](OC(=O)CN(CC)CC)C[C@]2(C)[C@@H](C(C)=O)CC[C@@H]32)C[C@@H]1O` [Example 122], in data set [1] (method A, 0.9% w/v saline in place of water, WT. of solution Ex. 122: 37.5 g, 222: 50 g), the Dissolved aminoester stood at 375 mg. In the data set “pH of the salt solutions” (solution of the salt in saline, before any adjustment), the pH is given as 3.5.

As to `CCN(CC)CC(=O)OC1CC2(C)C(C(C)=O)CCC2C2CCC3CC(O)C(C)CC3(C)C12` (centres unmarked) [Example 176], the Dissolved aminoester in data set [1] (setting [6]) was determined as 103 mg. In addition, the pH in the data set “pH of the salt solutions” (setting [3]) amounted to 3.7.

`CC(=O)[C@H]1CC[C@H]2[C@@H]3CC[C@H]4C[C@H](O)CC[C@]4(C)[C@H]3[C@@H](OC(=O)CNC34CC5CC(CC(C5)C3)C4)C[C@]12C` [Example 146]: in data set [1] (setting [2]), the Dissolved aminoester was 86 mg. The pH in “pH of the salt solutions” (setting [3]) was determined as 2.92.

Turning to `CC(=O)[C@H]1CC[C@H]2[C@@H]3CC[C@H]4C[C@H](O)CC[C@]4(C)[C@H]3[C@@H](OC(=O)CN3CCCCC3)C[C@]12C` [Example 156], the Dissolved aminoester in data set [1] (setting [4]) was 90.3 mg. Further, the pH in “pH of the salt solutions” (setting [3]) stood at 3.52.
